US10166229B2, “Compounds and methods for the treatment of cancer” (The Board of Trustees of the University of Illinois, priority 2005, dated 2019)
“Also recorded” adds a separate entry of the source.

How the values were obtained:
[1] = tested on: HL-60 cells; assay: Cell death induction IC50 (MTS) in HL-60; assay type: cell-based, human
[2] = tested on: NCI-H226 (lung cancer) xenograft; assay: NCI-H226 xenograft, intraperitoneal PAC-1; assay type: in vivo, mice; settings: i.p. 10 mg/kg
Protocol: A xenograft model was employed using NCI-H226 (lung cancer) cells. […] A comparison of efficacy was performed with gefitinib (Iressa™; AstraZeneca, Wilmington, Del.) at 40 mg/kg using 5 mice per group.

[3] = biological target: procaspase-3 mutant ADD; assay: Activation of safety catch mutant procaspase-3 (ADD); assay type: biochemical, Homo sapiens
Description: (§1) Safety catch mutations. The DDD procaspase-3 safety catch (SEQ ID NO:1; SEQ ID NO:2; SEQ ID NO:9) was mutated to ADD (SEQ ID NO:3, SEQ ID NO:4, SEQ ID NO:10), DAD (SEQ ID NO:5, SEQ ID NO:6, SEQ ID NO:11) and DDA (SEQ ID NO:7, SEQ ID NO:8, SEQ ID NO:12) using the quickchange strategy with the following primers, gacagacagtggtgttgCGgatgacatggcgtgtcataaaatacc (SEQ ID NO:13), gacagacagtggtgttgatgCtgacatggcgtgtcataaaatacc (SEQ ID NO:14) and gacagacagtggtgttgatgatgCcatggcgtgtcataaaatacc (SEQ ID NO:15) respectively. See also FIG. 9 and FIG. 10. Mutated bases are underlined and capitalized. All mutant plasmids were sequenced to ensure proper sequence throughout the gene. All mutant plasm ids were expressed exactly as wild-type procaspase-3 as described above. […] The plate was then incubated for 12 hours at 37° C. 10 μL of a 2 mM solution of Ac-DEVD-pNA (SEQ ID NO: 28) in caspase assay buffer was then added to each well. The plate was read every 2 minutes at 405 nm for 2 hours in a Spectra Max Plus 384 well plate reader. The slope of the linear portion for each well was determined and the fold increase in activity for each mutant was calculated.

[4] = tested on: NCI-H226 lung cancer cell line; assay: Cell death IC50 (MTS) in NCI-H226; assay type: cell-based; settings: Homo sapiens, NCI-H226, 72 h, read-out: IC50 for cell death induction, NCI-H226
[5] = biological target: PARP-1 (Homo sapiens (Human), UniProt P09874); assay: Control experiment: direct inhibition of PARP-1 enzymatic activity; assay type: biochemical; settings: control experiments
PARP-1, sequence (P09874 whole entry, species assumed): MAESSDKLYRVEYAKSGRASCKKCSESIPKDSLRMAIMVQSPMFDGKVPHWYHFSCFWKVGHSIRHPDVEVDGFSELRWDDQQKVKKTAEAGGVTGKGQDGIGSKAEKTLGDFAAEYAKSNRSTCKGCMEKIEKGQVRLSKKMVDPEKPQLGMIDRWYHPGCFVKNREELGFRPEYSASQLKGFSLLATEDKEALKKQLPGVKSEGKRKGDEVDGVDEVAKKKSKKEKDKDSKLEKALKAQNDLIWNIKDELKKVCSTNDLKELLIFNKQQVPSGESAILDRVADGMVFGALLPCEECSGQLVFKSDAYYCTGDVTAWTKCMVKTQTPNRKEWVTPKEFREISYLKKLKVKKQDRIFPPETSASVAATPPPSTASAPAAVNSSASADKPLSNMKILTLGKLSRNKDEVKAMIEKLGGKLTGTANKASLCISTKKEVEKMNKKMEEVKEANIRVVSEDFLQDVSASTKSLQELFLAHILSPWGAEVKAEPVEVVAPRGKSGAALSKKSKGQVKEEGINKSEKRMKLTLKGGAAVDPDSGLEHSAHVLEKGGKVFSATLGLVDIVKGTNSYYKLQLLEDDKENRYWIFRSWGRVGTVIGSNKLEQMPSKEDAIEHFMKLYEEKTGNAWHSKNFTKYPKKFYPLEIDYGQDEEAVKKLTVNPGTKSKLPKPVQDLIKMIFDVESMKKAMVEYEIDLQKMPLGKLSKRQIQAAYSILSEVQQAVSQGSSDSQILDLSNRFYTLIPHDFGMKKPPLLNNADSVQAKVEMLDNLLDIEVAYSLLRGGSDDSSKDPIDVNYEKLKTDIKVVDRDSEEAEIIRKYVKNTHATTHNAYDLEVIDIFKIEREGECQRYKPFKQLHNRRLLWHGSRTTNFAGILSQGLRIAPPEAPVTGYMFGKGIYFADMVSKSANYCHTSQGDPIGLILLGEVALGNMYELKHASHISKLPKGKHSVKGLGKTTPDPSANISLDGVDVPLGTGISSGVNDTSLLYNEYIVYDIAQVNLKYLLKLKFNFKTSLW

[6] = biological target: procaspase-3 (Homo sapiens (Human), UniProt P42574); assay: PAC-1 activation gel (Western blot of procaspase-3 cleavage); assay type: biochemical
procaspase-3, sequence (P42574 whole entry): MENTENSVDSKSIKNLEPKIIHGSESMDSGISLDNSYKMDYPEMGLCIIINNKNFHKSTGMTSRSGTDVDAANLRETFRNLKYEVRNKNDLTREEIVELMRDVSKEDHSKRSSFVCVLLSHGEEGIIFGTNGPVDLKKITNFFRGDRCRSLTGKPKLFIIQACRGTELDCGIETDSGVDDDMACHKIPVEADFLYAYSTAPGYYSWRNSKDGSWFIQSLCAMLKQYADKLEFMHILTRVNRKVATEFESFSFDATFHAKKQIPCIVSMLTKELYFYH
Protocol: Procaspase-3 was expressed and isolated exactly as above. Procaspase-3 was diluted to about 50 μg/mL in caspase assay buffer. […] After this incubation, an equal volume of load buffer (150 mM NaCl, 50 mM Tris, 2% SDS, 20% glycerol, pH 8.0) was added to each procaspase-3 sample. All samples were then stored at −80° C. until the time-course was completed. All samples were then incubated at 95° C. for 5 minutes and run on a 12% SDS-PAGE gel. Proteins were then transferred to nitrocellulose paper overnight. Blots were washed in TTBS (150 mM NaCl, 50 mM Tris, 0.1% Tween-20, pH 7.4) and blocked with a 10% milk solution for 2 hours. Blots were then incubated in a 1:5000 dilution of anti-Penta His Alexa Fluor 647 antibody for 2 hours. The blot was then washed with TTBS and scanned on a Typhoon fluorescence scanner (Amersham Biosciences, Sunnyvale Calif.).

[7] = biological target: active caspase-3 (Homo sapiens (Human), UniProt P42574); assay: Effect on fully processed caspase-3 enzyme; assay type: biochemical
active caspase-3, sequence (P42574 29-175): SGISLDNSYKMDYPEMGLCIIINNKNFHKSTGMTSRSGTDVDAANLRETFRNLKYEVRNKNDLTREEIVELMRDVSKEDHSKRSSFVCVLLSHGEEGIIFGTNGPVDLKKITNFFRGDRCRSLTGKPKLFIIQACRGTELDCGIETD
active caspase-3, sequence (P42574 176-277): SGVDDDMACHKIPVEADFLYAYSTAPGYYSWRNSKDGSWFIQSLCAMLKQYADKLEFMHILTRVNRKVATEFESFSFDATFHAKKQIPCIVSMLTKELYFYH
Protocol: Activation curves. The dose dependence of procaspase-3 activators was determined by adding various concentrations of compound to 90 μL of a 50 ng/mL procaspase-3, active caspase-3, procaspase-7 or active caspase-7 in caspase assay buffer in a 96-well plate. The plate was then incubated for 12 hours at 37° C. 10 μL of a 2 mM solution of Ac-DEVD-pNA (SEQ ID NO: 28) in caspase assay buffer was then added to each well. The plate was read every 2 minutes at 405 nm for 2 hours in a Spectra Max Plus 384 well plate reader. The slope of the linear portion for each well was determined and the fold increase in activation from non-treated control wells was calculated.

[8] = tested on: ACHN (renal cancer) subcutaneous tumors; assay: ACHN xenograft, PAC-1/cholesterol pellet; assay type: in vivo, mice
[9] = biological target: procaspase-3 mutant DDA (Homo sapiens, UniProt P42574, D181A); assay: Activation of safety catch mutant procaspase-3 (DDA); assay type: biochemical
procaspase-3 mutant DDA, sequence (P42574 29-175 limits assumed): as the sequence (P42574 29-175) above
procaspase-3 mutant DDA, sequence (P42574 176-277 D181A limits assumed): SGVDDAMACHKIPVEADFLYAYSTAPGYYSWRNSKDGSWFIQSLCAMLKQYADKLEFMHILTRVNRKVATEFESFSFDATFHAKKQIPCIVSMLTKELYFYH
Description: as §1

[10] = tested on: HL-60 cell line; assay: IC50 of PAC-1 derivatives in HL-60 cell line (Table 5); assay type: cell-based
Description: The results are indicated in Table 5 (where L- and R-designations refer to structures shown in the AX and BX series above, respectively).

[11] = tested on: cellular PARP activity in HL-60 cells; assay: In vivo PARP activity assay (PARP cleavage) in HL-60; assay type: cell-based, human; settings: HL-60, 100 μM PAC-1
Protocol: In vivo determination of PARP cleavage. The amount of PARP cleavage was determined by using an in vivo PARP activity assay. To accomplish this, 50 μL of media containing 200 μM NAD^+ was added to the control wells of a 96-well plate. […] 25 μL of HL-60 cells at a concentration of 5×10^6 cells/mL were then added to each well. The cells were incubated for various times and then spun at 1000×g for 5 minutes. The cell media was removed and replaced with 50 μL Lysing PARP Buffer (50 mM Tris, 10 mM MgCl2, pH 8.0, 1% Triton X-100) containing 25 mM H2O2. The plate was then incubated for 60 minutes at 37° C. To determine the amount of NAD^+ still present, 20 μL of 2 M KOH and 20 μL of a 20% (v/v) acetophenone (in ethanol) solution was added to each well of the 96-well plate. The plate was then incubated for 10 minutes at 4° C. 90 μL of an 88% (v/v) formic acid solution was added to each well of the 96-well plate. […] The plate was allowed to cool and then read on a Criterion Analyst AD (Molecular Devices, Sunnyvale, Calif.) with an excitation of 360 nm, an emission of 445 nm and a 400 nm cutoff dichroic mirror. The fluorophore was excited using a 1000 W continuous lamp for 1.6×10^5 μs with 5 reads performed per well. The number of moles of NAD^+ cleaved per minute was then calculated and the remaining PARP activity as compared to control wells was determined.

Structure (SMILES): C=CCc1cccc(/C=N/NC(=O)CN2CCN(Cc3ccccc3)CC2)c1O [PAC-1]
- cell death induction in cancer cells in culture (in words) [1]: induce death in cancer cells
- IC50 ([1]; Homo sapiens, HL-60, Table 3, read-out: IC50 (μM) for death induction in HL-60 cells): 0.92 µM
- growth in tumor volume, NCI-H226 xenograft [2]: associated with reducing growth in tumor volume
- EC50 [3]: 131 µM
- IC50 [4]: 0.35 µM
- direct inhibition of enzymatic activity of PARP-1 [5]: does not directly inhibit
- effectiveness in procaspase-3 cleavage assay ([6]; 5 μM): effective
- time to cleavage generating the p19 fragment ([6]; 100 μM PAC-1): ≤ 1 h
- cleavage (processing) of procaspase-3 ([6]; 100 μM PAC-1, after 4 hours): > 50%
- effect on catalytic activity of fully processed caspase-3 enzyme [7]: no effect
- food consumption ([8]; last week of the experiment, 0, 1, 5 mg pellets): no difference in food consumption
- tumor growth, ACHN xenograft ([8]; pellet containing 5 mg of PAC-1, about 8 weeks): significantly retarded; also recorded: reduces the growth of tumors
- EC50 [9]: 113 µM
- Fold better than PAC-1 ([10]; HL-60 IC50 relative to PAC-1): 1.0 fold
- IC50 ([10]; Homo sapiens, HL-60, Table 5): 54.6 µM
- cellular PARP activity / PARP-1 cleavage [11]: rapidly reduced; also recorded: induces cleavage of the caspase substrate PARP-1; also recorded: rapid decrease
